Test results reported in patent US20250381243A1, “HETEROCYCLES AND USES THEREOF” (Kumquat Biosciences Inc., priority 2022, published 2025).
Read-outs that look alike come from different tables or passages of the source.

Test system: A549 cells
Test: Cell proliferation assay (CellTiter-Glo), cells with K-Ras G12S mutation
Format: cell-based
Details: Homo sapiens, read-out: Inhibition of A549 Cells (IC50)
Procedure, shortened: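 A549 (K-Ras G12S) cells in RPMI-1640 with 10% heat-inactivated FBS, plated in standard or ultra-low-attachment 384-well format, treated next day with a dilution series (e.g., 10-point, 3-fold). Viability read by CellTiter-Glo luminescence about 6 days later; IC50 from four-parameter fit.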

SMILES	IC50 (≤500 nM) [nM]	IC50 (500 nM to 5 μM (mixed units)) [nM]
CC(C)[C@H]1N(C(=O)n2cnc(Cl)n2)C[C@@]1(C)CN(C)c1nc(OC[C@@]23CCCN2C[C@H](F)C3)nc2c(F)c(-c3ccc(F)c4sc(N)c(C#N)c34)c(Cl)cc12 [Compound 210, 2-amino-4-(6-chloro-4-((((2R,3R)-1-(3-chloro-1H-1,2,4-triazole-1-carbonyl)-2-isopropyl-3-methylazetidin-3-yl)methyl)(methyl)amino)-8-fluoro-2-(((2R,7aS)-2-fluorotetrahydro-1H-pyrrolizin-7a(5H)-yl)methoxy)quinazolin-7-yl)-7-fluorobenzo[b]thiophene-3-carbonitrile]	≤ 500	
CC(C)[C@H]1N(C(=O)n2cnc(F)n2)C[C@]12CC[C@H](C)N(c1nc(OC[C@@]34CCCN3C[C@H](F)C4)nc3c(F)c(-c4ccc(F)c5sc(N)c(C#N)c45)c(Cl)cc13)C2 [Compound 213, 2-amino-4-(6-chloro-8-fluoro-4-((1R,4R,7S)-2-(3-fluoro-1H-1,2,4-triazole-1-carbonyl)-1-isopropyl-7-methyl-2,6-diazaspiro[3.5]nonan-6-yl)-2-(((2R,7aS)-2-fluorotetrahydro-1H-pyrrolizin-7a(5H)-yl)methoxy)quinazolin-7-yl)-7-fluorobenzo[b]thiophene-3-carbonitrile]	≤ 500	
CC1([C@H]2N(C(=O)n3cnc(F)n3)C[C@]23CCCN(c2nc(OC[C@@]45CCCN4C[C@H](F)C5)nc4c(F)c(-c5ccc(F)c6sc(N)c(C#N)c56)c(Cl)cc24)C3)CC1 [Compound 216, 2-amino-4-(6-chloro-8-fluoro-4-((1R,4R)-2-(3-fluoro-1H-1,2,4-triazole-1-carbonyl)-1-(1-methylcyclopropyl)-2,6-diazaspiro[3.5]nonan-6-yl)-2-(((2R,7aS)-2-fluorotetrahydro-1H-pyrrolizin-7a(5H)-yl)methoxy)quinazolin-7-yl)-7-fluorobenzo[b]thiophene-3-carbonitrile]	≤ 500	
COCC1([C@H]2N(C(=O)n3cnc(F)n3)C[C@]23CCCCN(c2nc(OC[C@@]45CCCN4C[C@H](F)C5)nc4c(F)c(-c5ccc(F)c6sc(N)c(C#N)c56)c(Cl)cc24)C3)CC1 [Compound 219, 2-amino-4-(6-chloro-8-fluoro-4-((1S,4R)-2-(3-fluoro-1H-1,2,4-triazole-1-carbonyl)-1-(1-(methoxymethyl)cyclopropyl)-2,6-diazaspiro[3.6]decan-6-yl)-2-(((2R,7aS)-2-fluorotetrahydro-1H-pyrrolizin-7a(5H)-yl)methoxy)quinazolin-7-yl)-7-fluorobenzo[b]thiophene-3-carbonitrile]	≤ 500	
C[C@H]1CC[C@]2(CN(C(=O)n3cnc(F)n3)[C@@H]2C2(C)CC2)CN1c1nc(OC[C@]23CCCN2CC(=C(F)F)C3)nc2c(F)c(-c3ccc(F)c4sc(N)c(C#N)c34)c(Cl)cc12 [Compound 223, 2-amino-4-(6-chloro-2-(((R)-2-(difluoromethylene)tetrahydro-1H-pyrrolizin-7a(5H)-yl)methoxy)-8-fluoro-4-((1R,4R,7S)-2-(3-fluoro-1H-1,2,4-triazole-1-carbonyl)-7-methyl-1-(1-methylcyclopropyl)-2,6-diazaspiro[3.5]nonan-6-yl)quinazolin-7-yl)-7-fluorobenzo[b]thiophene-3-carbonitrile]	≤ 500	
CC(C)[C@H]1N(C(=O)n2cnc(O)n2)C[C@]12CCCCN(c1nc(OC[C@@]34CCCN3C[C@H](F)C4)nc3c(F)c(-c4ccc(F)c5sc(N)c(C#N)c45)c(Cl)cc13)C2 [Compound 224, 2-amino-4-(6-chloro-8-fluoro-2-(((2R,7aS)-2-fluorotetrahydro-1H-pyrrolizin-7a(5H)-yl)methoxy)-4-((1R,4R)-2-(3-hydroxy-1H-1,2,4-triazole-1-carbonyl)-1-isopropyl-2,6-diazaspiro[3.6]decan-6-yl)quinazolin-7-yl)-7-fluorobenzo[b]thiophene-3-carbonitrile]	≤ 500	
CC(C)[C@H]1N(C(=O)n2cnc(C(F)F)n2)C[C@]12CCCCN(c1nc(OC[C@@]34CCCN3C[C@H](F)C4)nc3c(F)c(-c4ccc(F)c5sc(N)c(C#N)c45)c(Cl)cc13)C2 [Compound 226, 2-amino-4-(6-chloro-4-((1R,4R)-2-(3-(difluoromethyl)-1H-1,2,4-triazole-1-carbonyl)-1-isopropyl-2,6-diazaspiro[3.6]decan-6-yl)-8-fluoro-2-(((2R,7aS)-2-fluorotetrahydro-1H-pyrrolizin-7a(5H)-yl)methoxy)quinazolin-7-yl)-7-fluorobenzo[b]thiophene-3-carbonitrile]	≤ 500	
CC(C)[C@H]1N(C(=O)n2cnc(C#N)n2)C[C@]12CC[C@H](C)N(c1nc(OC[C@@]34CCCN3C[C@H](F)C4)nc3c(F)c(-c4ccc(F)c5sc(N)c(C#N)c45)c(Cl)cc13)C2 [Compound 227, 1-((1R,4R,7S)-6-(7-(2-amino-3-cyano-7-fluorobenzo[b]thiophen-4-yl)-6-chloro-8-fluoro-2-(((2R,7aS)-2-fluorotetrahydro-1H-pyrrolizin-7a(5H)-yl)methoxy)quinazolin-4-yl)-1-isopropyl-7-methyl-2,6-diazaspiro[3.5]nonane-2-carbonyl)-1H-1,2,4-triazole-3-carbonitrile]	≤ 500	

Further lines, results first:

IC50 (≤500 nM) [nM]	IC50 (500 nM to 5 μM (mixed units)) [nM]	SMILES
≤ 500		CN(C[C@@H]1CN(C(=O)n2cnc(C(F)F)n2)[C@@H]1C(C)(C)C)c1nc(OC[C@@]23CCCN2C[C@H](F)C3)nc2c(F)c(-c3ccc(F)c4sc(N)c(C#N)c34)c(Cl)cc12 [Compound 228, 2-amino-4-(4-((((2S,3R)-2-(tert-butyl)-1-(3-(difluoromethyl)-1H-1,2,4-triazole-1-carbonyl)azetidin-3-yl)methyl)(methyl)amino)-6-chloro-8-fluoro-2-(((2R,7aS)-2-fluorotetrahydro-1H-pyrrolizin-7a(5H)-yl)methoxy)quinazolin-7-yl)-7-fluorobenzo[b]thiophene-3-carbonitrile]
≤ 500		C[C@H]1CC[C@]2(CN(C(=O)n3cnc(C(F)F)n3)[C@@H]2C2CCC2)CN1c1nc(OC[C@@]23CCCN2C[C@H](F)C3)nc2c(F)c(-c3ccc(F)c4sc(N)c(C#N)c34)c(Cl)cc12 [Compound 229, 2-amino-4-(6-chloro-4-((1R,4R,7S)-1-cyclobutyl-2-(3-(difluoromethyl)-1H-1,2,4-triazole-1-carbonyl)-7-methyl-2,6-diazaspiro[3.5]nonan-6-yl)-8-fluoro-2-(((2R,7aS)-2-fluorotetrahydro-1H-pyrrolizin-7a(5H)-yl)methoxy)quinazolin-7-yl)-7-fluorobenzo[b]thiophene-3-carbonitrile]
≤ 500		CC(C)[C@@H]1[C@H](CN(C)c2nc(OC[C@@]34CCCN3C[C@H](F)C4)nc3c(F)c(-c4ccc(F)c5sc(N)c(C#N)c45)c(Cl)cc23)CN1C(=O)n1cnc(C(F)F)n1 [Compound 230, 2-amino-4-(6-chloro-4-((((2R,3R)-1-(3-(difluoromethyl)-1H-1,2,4-triazole-1-carbonyl)-2-isopropylazetidin-3-yl)methyl)(methyl)amino)-8-fluoro-2-(((2R,7aS)-2-fluorotetrahydro-1H-pyrrolizin-7a(5H)-yl)methoxy)quinazolin-7-yl)-7-fluorobenzo[b]thiophene-3-carbonitrile]
	500 to 5000	C[C@H]1CC[C@]2(CN(C(=O)n3cnc(C#N)n3)[C@@H]2C2(C)CC2)CN1c1nc(OC[C@@]23CCCN2C[C@H](F)C3)nc2c(F)c(-c3ccc(F)c4sc(N)c(C#N)c34)c(Cl)cc12 [Compound 232, 1-((1R,4R,7S)-6-(7-(2-amino-3-cyano-7-fluorobenzo[b]thiophen-4-yl)-6-chloro-8-fluoro-2-(((2R,7aS)-2-fluorotetrahydro-1H-pyrrolizin-7a(5H)-yl)methoxy)quinazolin-4-yl)-7-methyl-1-(1-methylcyclopropyl)-2,6-diazaspiro[3.5]nonane-2-carbonyl)-1H-1,2,4-triazole-3-carbonitrile]
≤ 500		CC1([C@H]2N(C(=O)n3cnc(C(F)F)n3)C[C@]23CCCN(c2nc(OC[C@@]45CCCN4C[C@H](F)C5)nc4c(F)c(-c5ccc(F)c6sc(N)c(C#N)c56)c(Cl)cc24)C3)CC1 [Compound 234, 2-amino-4-(6-chloro-4-((1R,4R)-2-(3-(difluoromethyl)-1H-1,2,4-triazole-1-carbonyl)-1-(1-methylcyclopropyl)-2,6-diazaspiro[3.5]nonan-6-yl)-8-fluoro-2-(((2R,7aS)-2-fluorotetrahydro-1H-pyrrolizin-7a(5H)-yl)methoxy)quinazolin-7-yl)-7-fluorobenzo[b]thiophene-3-carbonitrile]
≤ 500		CC(C)[C@H]1N(C(=O)n2cnc(F)n2)C[C@]12CC(CC#N)CN(c1nc(OC[C@@]34CCCN3C[C@H](F)C4)nc3c(F)c(-c4ccc(F)c5sc(N)c(C#N)c45)c(Cl)cc13)C2 (stereo partly drawn) [Compound 235, 2-amino-4-(6-chloro-4-((1R,4R)-8-(cyanomethyl)-2-(3-fluoro-1H-1,2,4-triazole-1-carbonyl)-1-isopropyl-2,6-diazaspiro[3.5]nonan-6-yl)-8-fluoro-2-(((2R,7aS)-2-fluorotetrahydro-1H-pyrrolizin-7a(5H)-yl)methoxy)quinazolin-7-yl)-7-fluorobenzo[b]thiophene-3-carbonitrile]
≤ 500		CN(C[C@@H]1CN(C(=O)n2cnc(C(F)F)n2)[C@@H]1C1CCC1)c1nc(OC[C@@]23CCCN2C[C@H](F)C3)nc2c(F)c(-c3ccc(F)c4sc(N)c(C#N)c34)c(Cl)cc12 [Compound 236, 2-amino-4-(6-chloro-4-((((2R,3R)-2-cyclobutyl-1-(3-(difluoromethyl)-1H-1,2,4-triazole-1-carbonyl)azetidin-3-yl)methyl)(methyl)amino)-8-fluoro-2-(((2R,7aS)-2-fluorotetrahydro-1H-pyrrolizin-7a(5H)-yl)methoxy)quinazolin-7-yl)-7-fluorobenzo[b]thiophene-3-carbonitrile]
